Data on 21 compounds can be found in patent US9738655B2, “Tetrahydroisoquinolines containing substituted azoles as factor XIa inhibitors” (BRISTOL-MYERS SQUIBB COMPANY, priority 2013, dated 2017).

For orientation: Ki means the equilibrium dissociation constant of an inhibitor or competing ligand from its target.

The target in assay [1] is purified human Factor XIa (Homo sapiens (Human), UniProt P03951). Description: Factor XIa enzyme inhibition assay (chromogenic substrate S-2366).
In assay [2] the target is purified human plasma kallikrein (Homo sapiens (Human), UniProt P03952). As to the kind of experiment: Plasma kallikrein enzyme inhibition assay (chromogenic substrate S-2302). The class given is biochemical.
purified human plasma kallikrein, sequence (P03952 391-638): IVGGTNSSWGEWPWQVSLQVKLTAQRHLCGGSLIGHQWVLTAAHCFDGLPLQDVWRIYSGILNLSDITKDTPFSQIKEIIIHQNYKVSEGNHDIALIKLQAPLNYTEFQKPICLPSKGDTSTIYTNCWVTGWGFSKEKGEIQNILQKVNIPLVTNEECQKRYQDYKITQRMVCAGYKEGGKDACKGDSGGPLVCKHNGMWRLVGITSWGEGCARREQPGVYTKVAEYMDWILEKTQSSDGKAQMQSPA
purified human plasma kallikrein, sequence (P03952 20-390 partner): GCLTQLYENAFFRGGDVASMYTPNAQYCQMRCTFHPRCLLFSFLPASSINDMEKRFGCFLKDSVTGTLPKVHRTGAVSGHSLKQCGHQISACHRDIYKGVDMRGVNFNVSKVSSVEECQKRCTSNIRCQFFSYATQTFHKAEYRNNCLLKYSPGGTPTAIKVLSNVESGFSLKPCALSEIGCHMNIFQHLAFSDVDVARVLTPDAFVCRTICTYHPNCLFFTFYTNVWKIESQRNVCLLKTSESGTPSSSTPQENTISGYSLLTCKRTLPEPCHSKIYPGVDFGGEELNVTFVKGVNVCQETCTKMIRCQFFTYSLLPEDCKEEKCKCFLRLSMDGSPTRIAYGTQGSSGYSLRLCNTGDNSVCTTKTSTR
Where [3] appears, read: read-out: Factor XIa Ki, measured at 25° C.
[4] abbreviates: measured at 25° C. (no asterisk).
[5] abbreviates: read-out: Factor XIa Ki, measured at 25° C., TFA salt.
Setting [6] is: measured at 25° C. (no asterisk), TFA salt.

Where a name gives a salt, the structure may show the parent alone. Read-outs that look alike come from different tables or passages of the source.

purified human Factor XIa, sequence (P03951 388-625): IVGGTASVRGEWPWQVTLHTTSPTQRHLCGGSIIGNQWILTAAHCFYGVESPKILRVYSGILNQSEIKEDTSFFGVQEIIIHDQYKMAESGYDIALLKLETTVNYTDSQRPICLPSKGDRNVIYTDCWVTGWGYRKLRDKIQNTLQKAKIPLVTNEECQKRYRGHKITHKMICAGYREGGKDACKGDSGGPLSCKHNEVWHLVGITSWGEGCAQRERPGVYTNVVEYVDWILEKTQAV
purified human Factor XIa, sequence (P03951 19-387 partner): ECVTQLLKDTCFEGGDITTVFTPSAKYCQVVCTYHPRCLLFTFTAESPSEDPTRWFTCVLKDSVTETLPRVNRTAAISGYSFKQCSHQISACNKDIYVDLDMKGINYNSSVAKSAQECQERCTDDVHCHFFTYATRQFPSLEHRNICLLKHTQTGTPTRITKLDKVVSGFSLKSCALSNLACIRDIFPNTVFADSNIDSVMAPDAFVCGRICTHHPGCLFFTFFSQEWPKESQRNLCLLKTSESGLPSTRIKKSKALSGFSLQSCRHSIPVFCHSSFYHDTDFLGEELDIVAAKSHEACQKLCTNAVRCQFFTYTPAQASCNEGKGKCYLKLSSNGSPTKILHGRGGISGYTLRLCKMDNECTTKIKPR

`O=C(Nc1ccccc1)C1c2cccc(Br)c2CCN1C(=O)c1cn(-c2cccc(Cl)c2F)nn1` (stereo not drawn) [Example 119, 5-Bromo-2-(1-(3-chloro-2-fluorophenyl)-1H-1,2,3-triazole-4-carbonyl)-N-phenyl-1,2,3,4-tetrahydroisoquinoline-1-carboxamide]: the inhibition constant (Ki) worked out at 4440 nM in assay [1] (setting [3]) and 1100 nM in assay [2] (measured at 37° C. (*)).
Regarding `CC(CO)(CO)COC(C)(C)C1CCN(c2cccc3c2CCN(C(=O)c2cnn(-c4cccc(Cl)c4F)c2)C3C(=O)Nc2ccc(C(=O)O)cc2)CC1` (stereo not drawn) [Example 225, 4-(2-(1-(3-Chloro-2-fluorophenyl)-1H-pyrazole-4-carbonyl)-5-(4-(2-(3-hydroxy-2-(hydroxymethyl)-2-methylpropoxy)propan-2-yl)piperidin-1-yl)-1,2,3,4-tetrahydroisoquinoline-1-carboxamido)benzoic acid, TFA salt], the Ki in assay [1] (setting [3]) was below 5 nM; in assay [2] (setting [4]) it was 48.8 nM.
As for `O=C(Nc1ccc(-c2ncc[nH]2)cc1)[C@H]1c2cccc(-c3cncnc3)c2CCN1C(=O)c1cn(-c2cccc(Cl)c2F)nn1` [Example 139, (R)-N-(4-(1H-Imidazol-2-yl)phenyl)-2-(1-(3-chloro-2-fluorophenyl)-1H-1,2,3-triazole-4-carbonyl)-5-(pyrimidin-5-yl)-1,2,3,4-tetrahydroisoquinoline-1-carboxamide, TFA salt], the Ki in assay [1] (setting [3]) was 133 nM; in assay [2] (measured at 37° C. (*)), above 13000 nM.
The corresponding values for `O=C(O)c1ccc(NC(=O)C2c3cccc(-n4cnnc4)c3CCN2C(=O)c2cn(-c3cccc(Cl)c3F)nn2)cc1` (stereo not drawn) [Example 249, 4-(2-(1-(3-Chloro-2-fluorophenyl)-1H-1,2,3-triazole-4-carbonyl)-5-(4H-1,2,4-triazol-4-yl)-1,2,3,4-tetrahydroisoquinoline-1-carboxamido)benzoic acid, TFA salt] are below 5 nM and 20.4 nM.
Regarding `COC1CCN(c2cccc3c2CCN(C(=O)C2CC(c4c(F)ccc(Cl)c4F)=NO2)C3C(=O)Nc2ccc(C(=O)O)cc2)CC1` (stereo not drawn) [Example 256, 4-(2-(3-(3-chloro-2,6-difluorophenyl)-4,5-dihydroisoxazole-5-carbonyl)-5-(4-methoxypiperidin-1-yl)-1,2,3,4-tetrahydroisoquinoline-1-carboxamido)benzoic acid, TFA salt], the Ki in assay [1] (setting [5]) was 12.5 nM; in assay [2] (setting [6]), 198 nM.
Take `CNC(=O)c1ccc(-c2cccc3c2CCN(C(=O)c2cn(-c4cccc(Cl)c4F)nn2)C3C(=O)Nc2ccc(CC(=O)O)cc2)cn1` (stereo not drawn) [Example 117, 2-(4-(2-(1-(3-Chloro-2-fluorophenyl)-1H-1,2,3-triazole-4-carbonyl)-5-(6-(methylcarbamoyl)pyridin-3-yl)-1,2,3,4-tetrahydroisoquinoline-1-carboxamido)phenyl)acetic acid, TFA salt]: the inhibitory constant (Ki) in assay [1] (setting [3]) was below 5 nM; in assay [2] (setting [4]), 16.3 nM.
The corresponding values for `O=C(O)c1ccc(NC(=O)[C@@H]2c3cccc(N4CCOCC4)c3CCN2C(=O)c2cn(-c3cccc(Cl)c3F)cn2)cc1` [Example 91, (S)-4-(2-(1-(3-Chloro-2-fluorophenyl)-1H-imidazole-4-carbonyl)-5-morpholino-1,2,3,4-tetrahydroisoquinoline-1-carboxamido)benzoic acid, TFA salt] are below 5 nM and 3.84 nM.
On to `COC1CCN(c2cccc3c2CCN(C(=O)c2cn(-c4cccc(Cl)c4F)nn2)C3C(=O)Nc2ccc3c(c2)CCC(=O)N3C)CC1` (stereo not drawn) [Example 189, 2-(1-(3-Chloro-2-fluorophenyl)-1H-1,2,3-triazole-4-carbonyl)-5-(4-methoxypiperidin-1-yl)-N-(1-methyl-2-oxo-1,2,3,4-tetrahydroquinolin-6-yl)-1,2,3,4-tetrahydroisoquinoline-1-carboxamide, TFA salt], for which the Ki worked out at 411 nM in assay [1] (setting [3]) and 540 nM in assay [2] (setting [4]).
The corresponding values for `CN(C)C(=O)C1CCN(c2cccc3c2CCN(C(=O)c2cnn(-c4cccc(Cl)c4F)c2N)C3C(=O)Nc2ccc(C(=O)O)cc2)CC1` (stereo not drawn) [Example 317, 4-(2-(5-Amino-1-(3-chloro-2-fluorophenyl)-1H-pyrazole-4-carbonyl)-5-(4-(dimethylcarbamoyl)piperidin-1-yl)-1,2,3,4-tetrahydroisoquinoline-1-carboxamido)benzoic acid, TFA salt] are below 5 nM and 41.1 nM.
Take `COC1CCN(c2cccc3c2CCN(C(=O)c2cnn(-c4cccc(Cl)c4F)c2)C3C(=O)Nc2ccc(C(=O)O)cc2)CC1` (racemic) [Example 252, 4-(2-(1-(3-chloro-2-fluorophenyl)-1H-pyrazole-4-carbonyl)-5-(4-methoxypiperidin-1-yl)-1,2,3,4-tetrahydroisoquinoline-1-carboxamido)benzoic acid, TFA salt]: the values for the Ki in assay [1] and in assay [2] (setting [4]) were below 5 nM and 42.8 nM, respectively.
On to `CN1CCN(c2cccc3c2CCN(C(=O)c2cncc(-c4ccccc4)c2)C3C(=O)Nc2ccc(C(=O)O)cc2)CC1` (stereo not drawn) [Example 321, 4-(5-(4-Methylpiperazin-1-yl)-2-(5-phenylnicotinoyl)-1,2,3,4-tetrahydroisoquinoline-1-carboxamido)benzoic acid], for which the inhibitory constant (Ki) amounted to 236 nM in assay [1] (setting [3]) and 177 nM in assay [2] (setting [4]).
In the case of `O=C(NC12CCC(C(=O)O)(CC1)CC2)C1c2cccc(-c3cncnc3)c2CCN1C(=O)c1cn(-c2cccc(Cl)c2F)nn1` (stereo not drawn) [Example 143, 4-(2-{[1-(3-Chloro-2-fluorophenyl)-1H-1,2,3-triazol-4-yl]carbonyl}-5-(pyrimidin-5-yl)-1,2,3,4-tetrahydroisoquinoline-1-amido)bicyclo[2.2.2]octane-1-carboxylic acid, 1 TFA], the Ki is 5.23 nM in assay [1] (setting [3]) and 237 nM in assay [2] (measured at 37° C. (*)).
Taken in the same sequence, the figures for `Cn1ncnc1-c1cccc2c1CCN(C(=O)c1cn(-c3cccc(Cl)c3F)nn1)C2C(=O)Nc1ccc(C(=O)O)cc1` (stereo not drawn) [Example 245, 4-(2-(1-(3-Chloro-2-fluorophenyl)-1H-1,2,3-triazole-4-carbonyl)-5-(1-methyl-1H-1,2,4-triazol-5-yl)-1,2,3,4-tetrahydroisoquinoline-1-carboxamido)benzoic acid, TFA salt] were below 5 nM and 68.2 nM.
Taken in the same sequence, the figures for `COC1CCN(c2cccc3c2CCN(C(=O)c2cnn(-c4cccc(Cl)c4)c2C(F)(F)F)C3C(=O)Nc2ccc(C(=O)O)cc2)CC1` (stereo not drawn) [Example 150, 4-(2-(1-(3-chlorophenyl)-5-(trifluoromethyl)-1H-pyrazole-4-carbonyl)-5-(4-methoxypiperidin-1-yl)-1,2,3,4-tetrahydroisoquinoline-1-carboxamido)benzoic acid, TFA salt] were 2600 nM and above 6000 nM.
In the case of `Cn1ncc2cc(-c3cccc4c3CCN(C(=O)c3cn(-c5cccc(Cl)c5F)nn3)C4C(=O)Nc3ccc(C(=O)O)cc3)ccc21` (stereo not drawn) [Example 156, 4-(2-(1-(3-chloro-2-fluorophenyl)-1H-1,2,3-triazole-4-carbonyl)-5-(1-methyl-1H-indazol-5-yl)-1,2,3,4-tetrahydroisoquinoline-1-carboxamido)benzoic acid], the Ki in assay [1] (setting [3]) is below 5 nM; in assay [2] (setting [4]), 30.1 nM.
As to `O=C(Nc1ccc2ncccc2c1)[C@H]1c2cccc(-c3cncnc3)c2CCN1C(=O)c1cn(-c2cccc(Cl)c2F)nn1` (stereo in doubt) [Example 125, 2-(1-(3-Chloro-2-fluorophenyl)-1H-1,2,3-triazole-4-carbonyl)-5-(pyrimidin-5-yl)-N-(quinolin-6-yl)-1,2,3,4-tetrahydroisoquinoline-1-carboxamide, TFA salt], the Ki in assay [1] (setting [3]) is 9.62 nM; in assay [2] (measured at 37° C. (*)), 54.1 nM.
For the compound `O=C(O)c1ccc(NC(=O)C2c3cccc(N4CCCCC4)c3CCN2C(=O)c2cn(-c3cccc(Cl)c3F)nn2)cc1` (stereo not drawn) [Example 78, 4-(2-(1-(3-chloro-2-fluorophenyl)-1H-1,2,3-triazole-4-carbonyl)-5-(piperidin-1-yl)-1,2,3,4-tetrahydroisoquinoline-1-carboxamido)benzoic acid, TFA salt], the Ki worked out at 9.16 nM in assay [1] (setting [3]) and 36.1 nM in assay [2] (setting [4]).
As to `COC(=O)c1ccc(NC(=O)[C@H]2c3cccc(N4CCN(C5COC5)CC4)c3CCN2C(=O)[C@H]2CC(c3cccc(Cl)c3F)=NO2)cc1` [Example 233, Methyl 4-((R)-2-((R)-3-(3-chloro-2-fluorophenyl)-4,5-dihydroisoxazole-5-carbonyl)-5-(4-(oxetan-3-yl)piperazin-1-yl)-1,2,3,4-tetrahydroisoquinoline-1-carboxamido)benzoate, 2 TFA salt], the inhibitory constant (Ki) was 5.45 nM in assay [1] (setting [3]) and above 13000 nM in assay [2] (measured at 37° C. (*)).
Regarding `COC1CCN(c2cccc3c2CCN(C(=O)C2CC(c4c(F)ccc(Cl)c4F)=NO2)C3C(=O)Nc2ccc(C(=O)O)cc2)CC1` (stereo not drawn) [Example 257, 4-(2-(3-(3-chloro-2,6-difluorophenyl)-4,5-dihydroisoxazole-5-carbonyl)-5-(4-methoxypiperidin-1-yl)-1,2,3,4-tetrahydroisoquinoline-1-carboxamido)benzoic acid, TFA salt], the inhibitory constant (Ki) in assay [1] (setting [5]) was below 5 nM; in assay [2] (setting [6]), 24 nM.
`O=C(Nc1ccc(-c2ncc[nH]2)cc1)[C@@H]1c2cccc(-c3cncnc3)c2CCN1C(=O)[C@H]1CC(c2cccc(Cl)c2F)=NO1` [Example 134, (S)-N-(4-(1H-Imidazol-2-yl)phenyl)-2-((R)-3-(3-chloro-2-fluorophenyl)-4,5-dihydroisoxazole-5-carbonyl)-5-(pyrimidin-5-yl)-1,2,3,4-tetrahydroisoquinoline-1-carboxamide, TFA salt]: the Ki was below 5 nM in assay [1] (setting [3]) and 24.4 nM in assay [2] (measured at 37° C. (*)).
For `O=C(O)c1ccc(NC(=O)C2c3cccc(N4CCCCC4=O)c3CCN2C(=O)c2cn(-c3cccc(Cl)c3F)nn2)cc1` (stereo not drawn) [Example 81, 4-(2-(1-(3-chloro-2-fluorophenyl)-1H-1,2,3-triazole-4-carbonyl)-5-(2-oxopiperidin-1-yl)-1,2,3,4-tetrahydroisoquinoline-1-carboxamido)benzoic acid], the Ki in assay [1] (setting [3]) was below 5 nM; in assay [2] (setting [4]) it was 20.7 nM.
